Source: patent US12617758B2, “Quinazoline derivative having FLT3 inhibitory activity, and use thereof” (INDUSTRY-UNIVERSITY COOPERATION FOUNDATION HANYANG …, priority 2020, dated 2026)

Experiments:
Test in all cases: Kinase panel screening
Type in all cases: biochemical
ALK = ALK (Homo sapiens, UniProt Q9UM73); conditions: single dose of 10 μM, read-out: % inhibition rate
BTK = BTK (Homo sapiens, UniProt Q06187); conditions: single dose of 10 μM, read-out: % inhibition rate
c-Src = c-Src (Homo sapiens, UniProt P12931); conditions: single dose of 10 μM, read-out: % inhibition rate
c-MET = c-MET (Homo sapiens, UniProt P08581); conditions: single dose of 10 μM, read-out: % inhibition rate
LYN = LYN (Homo sapiens, UniProt P07948); conditions: single dose of 10 μM, read-out: % inhibition rate
Aurora A = Aurora A (Homo sapiens, UniProt O14965); conditions: single dose of 10 μM, read-out: % inhibition rate
ROS/ROS1 = ROS/ROS1 (Homo sapiens, UniProt P08922); conditions: single dose of 10 μM, read-out: % inhibition rate
AXL = AXL (Homo sapiens, UniProt P30530); conditions: single dose of 10 μM, read-out: % inhibition rate
JNK3 = JNK3 (Homo sapiens, UniProt P53779); conditions: single dose of 10 μM, read-out: % inhibition rate
ERK1 = ERK1 (Homo sapiens, UniProt P27361); conditions: single dose of 10 μM, read-out: % inhibition rate
RIPK3 = RIPK3 (Homo sapiens, UniProt Q9Y572); conditions: single dose of 10 μM, read-out: % inhibition rate
Experimental: Next, kinase panel screening for Compound 7d was investigated for 36 different kinases at a single dose of 10 μM (FIG. 1 and Table 3).

AXL (R499C) = AXL (R499C) (Homo sapiens, UniProt P30530, R499C); conditions: single dose of 10 μM, read-out: % inhibition rate
FYN = FYN (Homo sapiens, UniProt P06241); conditions: single dose of 10 μM, read-out: % inhibition rate
FLT1/VEGFR1 = FLT1/VEGFR1 (Homo sapiens, UniProt P17948); conditions: single dose of 10 μM, read-out: % inhibition rate
RON/MST1R = RON/MST1R (Homo sapiens, UniProt Q04912); conditions: single dose of 10 μM, read-out: % inhibition rate
FGFR3 = FGFR3 (Homo sapiens, UniProt P22607); conditions: single dose of 10 μM, read-out: % inhibition rate
FLT3 = target: T1, FLT3 (Homo sapiens, UniProt P36888); conditions: single dose of 10 μM
T1 sequence (P36888 27-993): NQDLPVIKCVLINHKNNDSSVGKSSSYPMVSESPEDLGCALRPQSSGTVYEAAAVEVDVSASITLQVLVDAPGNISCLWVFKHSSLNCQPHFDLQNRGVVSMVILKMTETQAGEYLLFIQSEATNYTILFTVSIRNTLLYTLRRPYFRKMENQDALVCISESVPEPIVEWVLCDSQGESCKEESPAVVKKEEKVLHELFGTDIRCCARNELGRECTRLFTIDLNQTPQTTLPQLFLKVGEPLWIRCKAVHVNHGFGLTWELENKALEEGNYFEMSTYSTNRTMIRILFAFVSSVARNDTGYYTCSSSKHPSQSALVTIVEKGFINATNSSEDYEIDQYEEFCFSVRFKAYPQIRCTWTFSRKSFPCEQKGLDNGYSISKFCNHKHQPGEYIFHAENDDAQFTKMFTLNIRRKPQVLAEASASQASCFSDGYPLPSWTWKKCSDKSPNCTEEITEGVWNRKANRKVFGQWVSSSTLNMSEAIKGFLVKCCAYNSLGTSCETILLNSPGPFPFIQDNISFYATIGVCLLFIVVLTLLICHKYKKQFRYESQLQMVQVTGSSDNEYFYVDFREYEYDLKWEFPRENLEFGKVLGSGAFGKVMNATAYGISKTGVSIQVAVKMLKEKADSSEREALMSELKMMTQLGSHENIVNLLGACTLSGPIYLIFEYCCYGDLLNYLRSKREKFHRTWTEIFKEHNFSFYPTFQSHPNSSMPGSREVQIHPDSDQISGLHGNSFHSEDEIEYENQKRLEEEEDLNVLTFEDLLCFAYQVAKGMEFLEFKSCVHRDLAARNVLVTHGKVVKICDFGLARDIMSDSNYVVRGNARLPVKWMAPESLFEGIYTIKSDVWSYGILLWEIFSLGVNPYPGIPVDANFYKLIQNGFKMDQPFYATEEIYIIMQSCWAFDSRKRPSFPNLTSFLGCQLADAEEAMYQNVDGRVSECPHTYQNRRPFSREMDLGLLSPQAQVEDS

Sequence of BTK (Q06187 whole entry, species assumed): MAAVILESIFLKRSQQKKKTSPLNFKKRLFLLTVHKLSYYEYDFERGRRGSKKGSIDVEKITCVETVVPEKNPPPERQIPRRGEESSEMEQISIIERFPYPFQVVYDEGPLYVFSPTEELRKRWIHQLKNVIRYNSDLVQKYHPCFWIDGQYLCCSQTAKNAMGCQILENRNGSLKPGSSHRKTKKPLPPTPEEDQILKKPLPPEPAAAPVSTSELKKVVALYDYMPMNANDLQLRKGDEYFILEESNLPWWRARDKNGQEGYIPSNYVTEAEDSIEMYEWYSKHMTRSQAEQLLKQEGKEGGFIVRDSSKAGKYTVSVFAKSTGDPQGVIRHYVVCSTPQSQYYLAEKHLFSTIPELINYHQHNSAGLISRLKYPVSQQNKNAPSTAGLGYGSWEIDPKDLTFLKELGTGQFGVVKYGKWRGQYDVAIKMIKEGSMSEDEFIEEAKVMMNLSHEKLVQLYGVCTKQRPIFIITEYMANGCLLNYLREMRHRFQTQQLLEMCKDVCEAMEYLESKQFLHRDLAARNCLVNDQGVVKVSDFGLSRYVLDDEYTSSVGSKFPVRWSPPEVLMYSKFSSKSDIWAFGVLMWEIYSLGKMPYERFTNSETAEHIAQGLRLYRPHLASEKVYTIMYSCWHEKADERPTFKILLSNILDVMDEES
Sequence of ALK (Q9UM73 19-1620, species assumed): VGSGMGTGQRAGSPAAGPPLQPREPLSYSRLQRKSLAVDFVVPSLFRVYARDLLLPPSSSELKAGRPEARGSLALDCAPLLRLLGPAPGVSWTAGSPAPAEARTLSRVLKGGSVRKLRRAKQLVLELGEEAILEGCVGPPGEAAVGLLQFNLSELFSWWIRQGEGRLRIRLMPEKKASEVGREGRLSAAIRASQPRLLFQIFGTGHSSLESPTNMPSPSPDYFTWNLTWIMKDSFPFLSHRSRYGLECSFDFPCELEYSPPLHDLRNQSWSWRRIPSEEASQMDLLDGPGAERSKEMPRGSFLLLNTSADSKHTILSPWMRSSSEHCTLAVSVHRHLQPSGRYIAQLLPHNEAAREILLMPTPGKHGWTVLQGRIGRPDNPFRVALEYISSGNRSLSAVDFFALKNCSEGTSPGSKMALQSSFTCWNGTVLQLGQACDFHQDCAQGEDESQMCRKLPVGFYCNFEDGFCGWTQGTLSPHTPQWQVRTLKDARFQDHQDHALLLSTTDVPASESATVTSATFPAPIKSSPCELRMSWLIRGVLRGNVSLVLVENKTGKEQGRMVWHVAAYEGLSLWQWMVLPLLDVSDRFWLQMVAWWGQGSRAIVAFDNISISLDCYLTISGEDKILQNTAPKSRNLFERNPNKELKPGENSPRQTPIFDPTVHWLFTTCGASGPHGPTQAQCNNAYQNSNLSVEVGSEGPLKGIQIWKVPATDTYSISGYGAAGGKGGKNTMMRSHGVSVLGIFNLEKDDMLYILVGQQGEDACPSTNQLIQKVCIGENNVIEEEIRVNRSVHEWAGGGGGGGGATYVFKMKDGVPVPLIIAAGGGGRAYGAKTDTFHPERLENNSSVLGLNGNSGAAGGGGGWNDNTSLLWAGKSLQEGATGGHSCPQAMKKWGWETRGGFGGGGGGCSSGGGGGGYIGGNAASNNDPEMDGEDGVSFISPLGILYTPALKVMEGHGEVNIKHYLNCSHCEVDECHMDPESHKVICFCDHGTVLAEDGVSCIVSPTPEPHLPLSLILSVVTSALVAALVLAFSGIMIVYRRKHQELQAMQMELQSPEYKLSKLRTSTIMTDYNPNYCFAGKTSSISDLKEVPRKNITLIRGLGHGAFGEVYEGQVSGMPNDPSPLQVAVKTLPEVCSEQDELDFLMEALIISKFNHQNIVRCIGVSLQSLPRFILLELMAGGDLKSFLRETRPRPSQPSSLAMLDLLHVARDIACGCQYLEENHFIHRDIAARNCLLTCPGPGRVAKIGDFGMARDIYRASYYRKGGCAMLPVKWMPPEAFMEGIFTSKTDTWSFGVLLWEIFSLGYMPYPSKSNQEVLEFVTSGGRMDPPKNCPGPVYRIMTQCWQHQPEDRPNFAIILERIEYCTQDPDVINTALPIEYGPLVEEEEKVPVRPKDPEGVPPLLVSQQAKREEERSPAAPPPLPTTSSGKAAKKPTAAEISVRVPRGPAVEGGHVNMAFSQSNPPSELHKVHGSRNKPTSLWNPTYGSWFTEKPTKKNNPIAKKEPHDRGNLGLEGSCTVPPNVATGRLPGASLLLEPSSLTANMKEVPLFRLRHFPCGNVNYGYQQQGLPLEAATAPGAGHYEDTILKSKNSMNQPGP
Sequence of Aurora A (O14965 whole entry): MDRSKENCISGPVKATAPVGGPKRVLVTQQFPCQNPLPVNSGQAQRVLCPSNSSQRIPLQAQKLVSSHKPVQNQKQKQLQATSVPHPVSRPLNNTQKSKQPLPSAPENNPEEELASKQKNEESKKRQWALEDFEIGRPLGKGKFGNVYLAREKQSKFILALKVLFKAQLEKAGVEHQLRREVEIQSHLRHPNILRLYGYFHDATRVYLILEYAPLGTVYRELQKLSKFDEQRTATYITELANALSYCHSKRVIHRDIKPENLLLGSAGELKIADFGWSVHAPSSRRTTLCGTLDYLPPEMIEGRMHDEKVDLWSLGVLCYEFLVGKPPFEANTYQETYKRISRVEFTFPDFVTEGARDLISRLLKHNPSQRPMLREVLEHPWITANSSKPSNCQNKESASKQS
Sequence of AXL (R499C) (P30530 26-894 R499C, species assumed): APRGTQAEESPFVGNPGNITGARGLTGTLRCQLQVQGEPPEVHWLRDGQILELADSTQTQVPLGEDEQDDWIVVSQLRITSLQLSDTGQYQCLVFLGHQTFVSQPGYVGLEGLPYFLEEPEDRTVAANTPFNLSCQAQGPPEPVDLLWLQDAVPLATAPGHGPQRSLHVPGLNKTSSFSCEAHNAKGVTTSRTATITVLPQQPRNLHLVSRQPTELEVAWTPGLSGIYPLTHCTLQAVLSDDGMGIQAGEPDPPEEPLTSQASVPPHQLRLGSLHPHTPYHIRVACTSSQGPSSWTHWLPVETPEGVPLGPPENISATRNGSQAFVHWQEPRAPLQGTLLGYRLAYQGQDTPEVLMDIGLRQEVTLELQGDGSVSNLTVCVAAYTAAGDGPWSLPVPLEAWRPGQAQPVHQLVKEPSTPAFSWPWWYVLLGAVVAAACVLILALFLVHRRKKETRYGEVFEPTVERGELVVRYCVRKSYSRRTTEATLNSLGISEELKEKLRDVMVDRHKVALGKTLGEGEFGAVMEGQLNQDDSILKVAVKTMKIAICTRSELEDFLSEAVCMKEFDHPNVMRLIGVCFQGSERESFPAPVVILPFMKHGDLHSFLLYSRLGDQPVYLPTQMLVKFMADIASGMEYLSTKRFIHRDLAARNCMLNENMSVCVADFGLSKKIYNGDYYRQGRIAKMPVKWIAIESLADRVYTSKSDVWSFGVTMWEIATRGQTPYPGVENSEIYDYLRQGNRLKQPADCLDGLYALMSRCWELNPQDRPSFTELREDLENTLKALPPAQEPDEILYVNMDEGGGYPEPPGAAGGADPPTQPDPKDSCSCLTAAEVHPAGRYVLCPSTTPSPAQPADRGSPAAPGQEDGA
Sequence of FYN (P06241 whole entry, species assumed): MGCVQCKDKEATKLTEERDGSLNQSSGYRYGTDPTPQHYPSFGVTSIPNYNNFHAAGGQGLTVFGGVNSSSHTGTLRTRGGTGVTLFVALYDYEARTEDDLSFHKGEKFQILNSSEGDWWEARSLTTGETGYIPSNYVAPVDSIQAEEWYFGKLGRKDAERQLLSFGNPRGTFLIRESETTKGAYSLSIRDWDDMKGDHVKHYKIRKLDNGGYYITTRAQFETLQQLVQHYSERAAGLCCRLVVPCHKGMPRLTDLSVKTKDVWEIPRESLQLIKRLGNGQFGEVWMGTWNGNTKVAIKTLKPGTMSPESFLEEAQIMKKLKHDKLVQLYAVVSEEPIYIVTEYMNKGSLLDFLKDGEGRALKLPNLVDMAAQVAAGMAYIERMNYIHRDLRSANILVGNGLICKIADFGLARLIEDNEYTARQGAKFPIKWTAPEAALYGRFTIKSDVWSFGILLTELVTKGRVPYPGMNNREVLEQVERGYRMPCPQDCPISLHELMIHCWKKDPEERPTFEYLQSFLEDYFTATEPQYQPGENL
Sequence of AXL (P30530 26-894, species assumed): as the sequence (P30530 26-894 R499C, species assumed) above, with C474R counted along it
Sequence of ERK1 (P27361 whole entry, species assumed): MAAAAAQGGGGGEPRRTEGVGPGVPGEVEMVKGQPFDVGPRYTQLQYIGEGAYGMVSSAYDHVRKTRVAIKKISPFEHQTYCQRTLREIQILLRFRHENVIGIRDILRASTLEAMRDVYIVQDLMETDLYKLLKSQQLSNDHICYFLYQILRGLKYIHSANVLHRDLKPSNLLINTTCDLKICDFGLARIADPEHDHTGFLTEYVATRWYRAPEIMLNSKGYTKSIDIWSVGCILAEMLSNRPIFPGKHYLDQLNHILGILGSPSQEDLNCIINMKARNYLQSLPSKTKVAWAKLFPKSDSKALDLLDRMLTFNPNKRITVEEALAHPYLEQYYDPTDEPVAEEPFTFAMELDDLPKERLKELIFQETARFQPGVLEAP
Sequence of c-Src (P12931 whole entry, species assumed): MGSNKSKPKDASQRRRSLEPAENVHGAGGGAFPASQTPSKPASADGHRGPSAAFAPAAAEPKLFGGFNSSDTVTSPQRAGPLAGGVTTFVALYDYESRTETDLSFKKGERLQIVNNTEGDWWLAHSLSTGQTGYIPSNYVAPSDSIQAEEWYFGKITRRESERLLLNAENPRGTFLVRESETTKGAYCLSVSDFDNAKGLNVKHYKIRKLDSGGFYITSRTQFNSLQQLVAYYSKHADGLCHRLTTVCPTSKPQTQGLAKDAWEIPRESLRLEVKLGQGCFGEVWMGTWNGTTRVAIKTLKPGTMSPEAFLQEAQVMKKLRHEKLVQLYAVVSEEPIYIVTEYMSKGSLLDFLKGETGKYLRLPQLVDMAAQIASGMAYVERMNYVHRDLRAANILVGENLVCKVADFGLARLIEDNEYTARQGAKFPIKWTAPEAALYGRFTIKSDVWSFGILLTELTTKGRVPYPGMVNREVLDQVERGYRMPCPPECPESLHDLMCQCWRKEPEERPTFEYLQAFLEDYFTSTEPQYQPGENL

Cc1oncc1C(=O)Nc1ccc2cnc(-c3cc(N4CCN(C)CC4)cc(C(F)(F)F)c3)nc2c1 [Compound 7d, 5-methyl-N-(2-(3-(4-methylpiperazin-1-yl)-5-(trifluoromethyl)phenyl)quinazolin-7-yl)isoxazole-4-carboxamide]
inhibition at 10 µM (ALK): 17%
inhibition at 10 µM (BTK): 17.5%
inhibition at 10 µM (c-Src): 14.6%
inhibition at 10 µM (c-MET): 13.2%
inhibition at 10 µM (LYN): 20.5%
inhibition at 10 µM (Aurora A): 20.1%
inhibition at 10 µM (ROS/ROS1): 14.4%
inhibition at 10 µM (AXL): 21.2%
inhibition at 10 µM (JNK3): 19.5%
inhibition at 10 µM (ERK1): 15%
inhibition at 10 µM (RIPK3): 12.8%
inhibition at 10 µM (AXL (R499C)): 10.1%
inhibition at 10 µM (FYN): 19%
inhibition at 10 µM (FLT1/VEGFR1): 5.23%
inhibition at 10 µM (RON/MST1R): 13.5%
inhibition at 10 µM (FGFR3): 1%
% inhibition rate (FLT3): 96.6%
